Results from patent US20240002393A1, “SUBSTITUTED BENZO[f][l ,2,4JTRIAZOL0[4,3-a][l ,4J[…] GABA A GAMMA! POSITIVE ALLOSTERIC MODULATORS” (Hoffmann-La Roche Inc., priority 2020, published 2024).

How the values were obtained:
[1] = molecular target: human GABAA α1β3γ2 receptor (Homo sapiens (Human), UniProt P14867+P18507); test: Radioligand binding assay, [3H]Flumazenil competition, γ2-containing GABAA subtypes; conditions: HEK293F membranes, [3H]Flumazenil 1 nM, mean of two determinations; read-out: Ki h-GABAA α1β3γ2
Description: The affinity of compounds at GABAA γ2 subunit-containing receptors was measured by competition for [^3H]Flumazenil (81.1 Ci/mmol; Roche) binding to HEK293F cells expressing human (transiently transfected) receptors of composition α1β3γ2.
Harvested pellets from HEK293F cells expressing the different GABAA γ2 receptor subtypes were resuspended in Mannitol Buffer pH 7.2-7.4 and processed as described above for the cells expressing the GABAA γ1 subunit-containing receptors.
Assays were incubated to equilibrium for 1 hour at 4° C. and harvested onto GF/C uni-filters (Packard) by filtration using a Packard harvester and washing with ice-cold wash buffer (50 mM Tris; pH 7.5). After drying, filter-retained radioactivity was detected by liquid scintillation counting. Ki values were calculated using Exel-Fit (Microsoft) and are the means of two determinations.

h-GABA-A α2β2γ1 = h-GABA-A α2β2γ1 (Homo sapiens (Human), UniProt P47869+Q8N1C3); test: Two-electrode voltage clamp electrophysiology in Xenopus oocytes expressing GABAA receptors; assay type: cell-based; conditions: for Efficacy (GABA)%: % modulation of GABA EC20 = 100*(Fold increase−1), compound at 30-fold Ki; for Fold increase h-GABA-A α2β2γ1 oocyte @ 30-fold Ki: GABA EC20, test compound at about 30-fold its Ki α2β2γ1, at least 3 oocytes
Description: Xenopus laevis oocytes at maturation stages V-VI were used for the expression of cloned mRNA encoding GABAA receptor subunits. Oocytes ready for RNA micro-injection were bought from Ecocyte, Castrop-Rauxel, Germany and stored in modified Barth's medium (composition in mM: NaCl 88, KCl 1, NaHCO3 2.4, HEPES 10, MgSO4 0.82, CaNO3 0.33, CaCl2 0.33, pH=7.5) at 20° C. until the experiment.
Oocytes were plated in 96-well plates for microinjection using the Roboinject automated instrument (MultiChannelSystems, Reutlingen, Germany). Approximately 50 nL of an aqueous solution containing the RNA transcripts for the subunits of the desired GABAA receptor subtype was injected into each oocyte. […] Oocytes were kept in modified Barth's medium (composition in mM: NaCl 88, KCl 1, NaHCO3 […], HEPES 10, MgSO4 0.82, CaNO3 0.33, CaCl2 0.33, pH=7.5) at 20° C. until the experiment.
Electrophysiological experiments were performed using the Roboocyte instrument (MultiChannelSystems, Reutlingen, Germany) on days 3 to 5 after the micro-injection of mRNA. During the experiment the oocytes were constantly superfused by a solution containing (in mM) NaCl 90, KCl 1, HEPES 5, MgCl2 1 CaCl2 1 (pH 7.4). Oocytes were impaled by two glass microelectrodes (resistance: 0.5-0.8 MΩ) which were filled with a solution containing KCl 1M+K-acetate 1.5 M and voltage-clamped to −80 mV. The recordings were performed at room temperature using the Roboocyte two-electrode voltage clamp system (Multichannelsystem). After an initial equilibration period of 1.5 min GABA was added for 1.5 min at a concentration evoking approximately 20% of a maximal current response (EC20). After another rest interval of 2.5 min GABA was again added evoking a response of similar amplitude and shape. […] Current traces were recorded at a digitization rate of 10 Hz during and shortly before and after the GABA application.
Each compound and concentration was tested on at least 3 oocytes. Different oocytes were used for different compound concentrations.
For the analysis, the digitized current traces of the first and second GABA response were superimposed and, if necessary, rescaled to equal maximal amplitudes. The ratio between the two responses during the time interval of test compound application was calculated point by point. The extremum of the resulting “ratio trace” was taken as the efficacy (“Fold increase”) of the compound expressed as “% modulation of GABA EC20” (100*(Fold increase−1)).

SMILES | Ki [1] | Efficacy (GABA)% (h-GABA-A α2β2γ1) | Fold increase h-GABA-A α2β2γ1 oocyte @ 30-fold Ki (h-GABA-A α2β2γ1)
C[C@@H]1N=C(c2ccccc2F)c2c(ccc(Br)c2Cl)-n2cnnc21 [Example 30, (4S)-8-bromo-7-chloro-6-(2-fluorophenyl)-4-methyl-4H-[1,2,4]triazolo[4,3-a][1,4]benzodiazepine] | 582 nM | 57% | 1.57
OC1N=C(c2c(F)cccc2F)c2c(ccc(Br)c2Cl)-n2cnnc21 (stereo not drawn) [Example 31, 8-bromo-7-chloro-6-(2,6-difluorophenyl)-4H-[1,2,4]triazolo[4,3-a][1,4]benzodiazepin-4-ol] | 707 nM | 74% | 1.74
C[C@@H]1N=C(c2ccccc2F)c2c(ccc(Br)c2Cl)-n2c(-c3cccnn3)nnc21 [Example 32, (4S)-8-bromo-7-chloro-6-(2-fluorophenyl)-4-methyl-1-pyridazin-3-yl-4H-[1,2,4]triazolo[4,3-a][1,4]benzodiazepine] | 1030 nM | 105% | 2.05
OC1N=C(c2ccccc2F)c2c(ccc(Br)c2Cl)-n2c(-c3cccnn3)nnc21 (stereo not drawn) [Example 35, 8-bromo-7-chloro-6-(2-fluorophenyl)-1-pyridazin-3-yl-4H-[1,2,4]triazolo[4,3-a][1,4]benzodiazepin-4-ol] | 2800 nM | 108% | 2.08
C[C@@H]1N=C(c2c(F)cccc2F)c2c(ccc(Br)c2Cl)-n2cnnc21 [Example 51, (4S)-8-bromo-7-chloro-6-(2,6-difluorophenyl)-4-methyl-4H-[1,2,4]triazolo[4,3-a][1,4]benzodiazepine] | 393 nM | 56% | 1.56
C[C@@H]1N=C(c2c(F)cccc2F)c2c(ccc(Cl)c2Cl)-n2c(-c3ccncn3)nnc21 [Example 52, (4S)-7,8-dichloro-6-(2,6-difluorophenyl)-4-methyl-1-pyrimidin-4-yl-4H-[1,2,4]triazolo[4,3-a][1,4]benzodiazepine] | 638 nM | 100% | 2.00
C[C@@H]1N=C(c2c(F)cccc2F)c2c(ccc(Cl)c2Cl)-n2c(-c3cnn(C)c3)nnc21 [Example 53, (4S)-7,8-dichloro-6-(2,6-difluorophenyl)-4-methyl-1-(1-methylpyrazol-4-yl)-4H-[1,2,4]triazolo[4,3-a][1,4]benzodiazepine] | 246 nM | 32% | 1.32
C[C@@H]1N=C(c2c(F)cccc2F)c2c(ccc(Cl)c2Cl)-n2c(-c3cccnn3)nnc21 [Example 56, (4S)-7,8-dichloro-6-(2,6-difluorophenyl)-4-methyl-1-pyridazin-3-yl-4H-[1,2,4]triazolo[4,3-a][1,4]benzodiazepine] | 850 nM | 78% | 1.78
C[C@@H]1N=C(c2ncccc2F)c2c(ccc(Cl)c2Cl)-n2c(-c3cccnn3)nnc21 [Example 63, (4S)-7,8-dichloro-6-(3-fluoro-2-pyridyl)-4-methyl-1-pyridazin-3-yl-4H-[1,2,4]triazolo[4,3-a][1,4]benzodiazepine] | 4080 nM | 891% | 9.91
C[C@@H]1N=C(c2c(F)cccc2F)c2c(ccc(Cl)c2Cl)-n2c1n[nH]c2=O [Example 64, (4S)-7,8-dichloro-6-(2,6-difluorophenyl)-4-methyl-2,4-dihydro-[1,2,4]triazolo[4,3-a][1,4]benzodiazepin-1-one] | 602 nM | 74% | 1.74
C[C@@H]1N=C(c2ncccc2F)c2c(ccc(Cl)c2Cl)-n2c(-c3ccncn3)nnc21 [Example 66, (4S)-7,8-dichloro-6-(3-fluoro-2-pyridyl)-4-methyl-1-pyrimidin-4-yl-4H-[1,2,4]triazolo[4,3-a][1,4]benzodiazepine] | 3280 nM | 143% | 2.43
C[C@@H]1N=C(c2ncccc2F)c2c(ccc(Cl)c2Cl)-n2c(-c3cnn(C)c3)nnc21 [Example 67, (4S)-7,8-dichloro-6-(3-fluoro-2-pyridyl)-4-methyl-1-(1-methylpyrazol-4-yl)-4H-[1,2,4]triazolo[4,3-a][1,4]benzodiazepine] | 1420 nM | 69% | 1.69
C[C@@H]1N=C(c2ncccc2F)c2c(ccc(Cl)c2Cl)-n2c(C3CC3)nnc21 [Example 68, (4S)-7,8-dichloro-1-cyclopropyl-6-(3-fluoro-2-pyridyl)-4-methyl-4H-[1,2,4]triazolo[4,3-a][1,4]benzodiazepine] | 1060 nM | 109% | 2.09
C[C@@H]1N=C(c2c(F)cccc2F)c2c(ccc(Cl)c2Br)-n2c(-c3cccnn3)nnc21 [Example 73, (4S)-7-bromo-8-chloro-6-(2,6-difluorophenyl)-4-methyl-1-(pyridazin-3-yl)-4H-benzo[f][1,2,4]triazolo[4,3-a][1,4]diazepine] | 768 nM | 105% | 2.05
C[C@@H]1N=C(c2c(F)cccc2F)c2c(ccc(Cl)c2Br)-n2c(-c3ccncn3)nnc21 [Example 74, (4S)-7-bromo-8-chloro-6-(2,6-difluorophenyl)-4-methyl-1-pyrimidin-4-yl-4H-[1,2,4]triazolo[4,3-a][1,4]benzodiazepine] | 1870 nM | 62% | 1.62
Cc1nnc2n1-c1ccc(Br)c(Cl)c1C(c1c(F)cccc1F)=N[C@H]2C [Example 75, (4S)-8-bromo-7-chloro-6-(2,6-difluorophenyl)-1,4-dimethyl-4H-[1,2,4]triazolo[4,3-a][1,4]benzodiazepine] | 202 nM | 57% | 1.57
C[C@@H]1N=C(c2c(F)cccc2F)c2c(ccc(Cl)c2Br)-n2c(-c3cnn(C)c3)nnc21 [Example 76, (4S)-7-bromo-8-chloro-6-(2,6-difluorophenyl)-4-methyl-1-(1-methylpyrazol-4-yl)-4H-[1,2,4]triazolo[4,3-a][1,4]benzodiazepine] | 530 nM | 52% | 1.52
Cc1nnc2n1-c1ccc(Cl)c(Br)c1C(c1c(F)cccc1F)=N[C@H]2C [Example 80, (4S)-7-bromo-8-chloro-6-(2,6-difluorophenyl)-1,4-dimethyl-4H-[1,2,4]triazolo[4,3-a][1,4]benzodiazepine] | 1070 nM | 59% | 1.59
C[C@@H]1N=C(c2c(F)cccc2F)c2c(ccc(Cl)c2Br)-n2c(-c3ccn(C)n3)nnc21 [Example 81, (4S)-7-bromo-8-chloro-6-(2,6-difluorophenyl)-4-methyl-1-(1-methylpyrazol-3-yl)-4H-[1,2,4]triazolo[4,3-a][1,4]benzodiazepine] | 1560 nM | 46% | 1.46
